In patent US6927213B2, “Cationic cholesteryl derivatives containing cyclic polar groups” (University of Pittsburgh, priority 1996, dated 2005):
Entries after “also recorded” stand apart in the source; their conditions may differ. Read-outs that look alike come from different tables or passages of the source.

Key:
[1] = system: CHO cells; test: Transfection of CHO cells with pCMV-Luc DNA:lipid complexes, luciferase activity; type: cell-based, Chinese Hamster; settings: for luciferase activity (transfection activity): 1 μg pCMV-Luc DNA, liposomes DOPE:cationic lipid 1:1 mol:mol, absence of serum, 36 hours after transfection
[2] = system: CHO cells; test: Toxicity of lipids: protein per well 36 hours after transfection, CHO cells
[3] = system: CHO cells
[4] = system: 293 cells; test: Transfection of 293 cells with pCMV-Luc DNA:lipid complexes, luciferase activity; type: cell-based, human; settings: DOPE:lipid 1:1 mol:mol, FIG. 7
Description: (§1) 2 μmol of Lipid dissolved in chloroform was transferred to a test tube. A solution of DOPE (2 umol) in chloroform was then added to this test tube. The chloroform was evaporated by passing a stream of nitrogen through the test tube to obtain a thin film of at the bottom of the test tube. Further drying was done in a desiccator under high vacuum for 30 minutes. 2 ml of distilled water was then added to the test tubes. The test tubes were stoppered and vortexed for one minute followed by sonication until the size of the particles was between 100 to 200 nm. The size of the particles was measured by Coulter particle size analyzer.
(§2) CHO, 293 and BL6 cells were obtained from the American Type Culture Collection (ATCC). Chinese Hamster Ovarian (“CHO”) cells were maintained in F-12 nutrient medium supplemented with 10% fetal bovine serum, antibiotics (1% penicillin-streptomycin) and 1% glutamine; human embryonic kidney 293 cells and murine melanoma BL6 cells were cultured in DMEM medium supplemented with 10% fetal bovine serum, antibiotics (1% penicillin-streptomycin) and 1% glutamine. […]
(§3) Luciferase activity was assayed by measuring the luminescence obtained after adding the substrate (Promega) to in aliquot of lysate. This luminescence was measured in a luminometer for 25 seconds.

[5] = system: BL6 cells; test: Transfection of BL6 cells with pCMV-Luc DNA:lipid complexes, luciferase activity; type: cell-based, murine; settings: DOPE:lipid 1:1 mol:mol, FIG. 8
Description: as §1, §2, §3

[6] = system: HeLa; test: Transfection of HeLa cells; type: cell-based; settings: data not shown
Description: (§4) Lipid 5 was further compared with DC-Chol by transfecting BL6 cells with lipid 5- or DC-Chol-containing DNA:lipid complexes (FIGS. 7 and 8 respectively). […] Lipid 5 was also tested in several cell lines including HeLa, Siha and Caski which are somewhat difficult to transfect when compared with CHO or 293 cells.

[7] = system: Siha; test: Transfection of Siha cells; type: cell-based; settings: data not shown
Description: as §4

[8] = system: Caski; test: Transfection of Caski cells; type: cell-based; settings: data not shown
Description: as §4

[9] = system: BL6 cells; test: Toxicity of lipids: protein per well 36 hours after transfection, BL6 cells; type: cell-based, murine; settings: DOPE:lipid 1:1, FIG. 10
Description: Toxicity was assayed by measuring the amount of protein remaining in each well 36 hours after treatment with the indicated amount of liposome.
The toxicity of lipids was assayed by measuring the protein concentration in each well by Coomassie blue reagent (Píerce) 36 hours after transfection. Greater concentrations of protein per well indicated less toxicity of the tested lipids.
FIGS. 9 and 10 show the toxicity of lipid 5 compared to that of DC-Chol in CHO and BL6 cells respectively, where toxicity was assessed by measuring the amount of protein in each well after transfection of cells with DNA:lipid complexes formulated by mixing DNA and liposomes containing DOPE and DC-Chol or DOPE and lipids.

[10] = Stability of liposomes, retention of diameter over time; type: physicochemical; settings: all lipid 5:DOPE ratios shown in FIG. 11
Description: as §1
The X axis of FIG. 11 refers to the total liposomal lipid mixed with 1 μg pCMV-Luc DNA:lipid complexes.

[11] = system: CHO cells; test: Serum sensitivity of transfection of CHO cells; type: cell-based, Chinese Hamster; settings: 1 μg DNA, 10% serum
[12] = system: Mice; test: In vivo transfection with pCMV-Luc DNA:lipid complexes; settings: intratumoral or intravenous, 30 μg pCMV-Luc DNA with 30 nmols liposomal lipid (1:1 lipid 5:DOPE), 1-5 days
Description: Mice are injected intratumorally or intravenously with 50 μl of solution containing pCMV-Luc DNA (30 μg) complexed with 30 nmols of liposomal lipid (1:1 mol/mol lipid 5:DOPE). Animals are sacrificed 1-5 days later and extracts from tumor tissue (intratumor injection) or lung, liver and blood (intravenous injection) are assayed for luciferase activity and protein levels.

CC(C)CCC[C@@H](C)[C@H]1CC[C@H]2[C@@H]3CC=C4C[C@@H](OC(=O)NCCN(C)C)CC[C@]4(C)[C@H]3CC[C@]12C [DC-Chol, 3β [N-(N′,N′-dimethylaminoethane)carbamoyl] cholesterol, reference compound]
luciferase activity (transfection activity) [1]: lipid 5>DC-Chol>lipid 4 | appearance of transfected cells observed under microscope ([2]; cell line (CHO or BL6) not specified, data not shown): some necrosis

pyridyl (ethyl) carbamoyl cholesteryl [lipid PY]
luciferase activity (transfection activity) [1]: much less active | toxicity relative to DC-Chol [2]: comparable toxicity to DC-Chol

CC(C)CCC[C@@H](C)[C@H]1CC[C@H]2[C@@H]3CC=C4C[C@@H](OC(=O)NCCN5CCCCC5)CC[C@]4(C)[C@H]3CC[C@]12C [lipid 7, {N-2-ethylamino[(3′-β-cholesteryl)carbamoyl]}piperidine]
luciferase activity (transfection activity) [1]: less active than DC-Chol | toxicity relative to DC-Chol [3]: less toxic than DC-Chol

(imidazole) propyl carbamoyl cholesteryl [lipid IM]
luciferase activity (transfection activity) [1]: slightly less active than DC-Chol

CC(C)CCC[C@@H](C)[C@H]1CC[C@H]2[C@@H]3CC=C4C[C@@H](OC(=O)NCCN5CCNCC5)CC[C@]4(C)[C@H]3CC[C@]12C [lipid 2, 4{N-2-ethylamino[(3′-β-cholesteryl)carbamoyl]}piperazine]
luciferase activity (transfection activity) [1]: low activity

CC(C)CCC[C@@H](C)[C@H]1CC[C@H]2[C@@H]3CC=C4C[C@@H](OC(=O)NN5CCN(C)CC5)CC[C@]4(C)[C@H]3CC[C@]12C [lipid 5, N-methyl{4-N-amino[(3′-β-cholesteryl)carbamoyl]}piperazine]
luciferase activity (transfection activity) [1]: lipid 5>DC-Chol>lipid 4; also recorded: high activity | transfection activity (luciferase) ([1]; lipid 5:DOPE ratio of 2:8, FIG. 11): less activity | transfection activity (luciferase) ([1]; lipid 5:DOPE ratio of 4:6, FIG. 11): very similar transfection activities | transfection activity (luciferase) ([1]; lipid 5:DOPE ratio of 5:5, FIG. 11): very similar transfection activities | transfection activity (luciferase) ([1]; lipid 5:DOPE ratio of 6:4, FIG. 11): highest activity among all complexes | transfection activity (luciferase) ([1]; lipid 5:DOPE ratio of 8:2, FIG. 11): less activity | luciferase activity (transfection activity) [4]: almost equally as active as DC-Chol | luciferase activity (transfection activity) [5]: almost equally as active as DC-Chol | ability to transfect cells [6]: slightly better than DC-Chol | ability to transfect cells [7]: slightly better than DC-Chol | ability to transfect cells [8]: slightly better than DC-Chol | toxicity: amount of protein in each well after transfection [9]: more protein than cells transfected with DC-Chol-containing complex | liposome stability (retention of diameter over time) [10]: stable liposomes | activity retained relative to the 0% serum complexes ([11]; 5 nmol lipid 5 (1:1 with DOPE)): approximately 40% | activity retained relative to the 0% serum complexes ([11]; 10 nmol lipid 5 (1:1 with DOPE)): approximately 40% | activity retained relative to the 0% serum complexes ([11]; 20 nmol lipid 5 (1:1 with DOPE)): 10% | in vivo transfection activity (luciferase in tissue extracts) [12]: exhibit in vivo transfection activity | appearance of transfected cells observed under microscope [3]: healthy | toxicity relative to DC-Chol [2]: reduced toxicity | toxicity: amount of protein in each well after transfection ([2]; CHO cells, DOPE:lipid 1:1, 36 hours, FIG. 9): more protein than cells transfected with DC-Chol-containing complex

CC(C)CCC[C@@H](C)[C@H]1CC[C@H]2[C@@H]3CC=C4C[C@@H](OC(=O)NCCCN5CCOCC5)CC[C@]4(C)[C@H]3CC[C@]12C [lipid 4]
luciferase activity (transfection activity) [1]: lipid 5>DC-Chol>lipid 4; also recorded: reasonable activity

CC(C)CCC[C@@H](C)[C@H]1CC[C@H]2[C@@H]3CC=C4C[C@@H](OC(=O)NCCN5CCCC5)CC[C@]4(C)[C@H]3CC[C@]12C [lipid 6, {N-2-ethylamino[(3′-β-cholesteryl)carbamoyl]}pyrrolidine]
luciferase activity (transfection activity) [1]: less active than DC-Chol | toxicity relative to DC-Chol [3]: less toxic than DC-Chol

CC(C)CCC[C@@H](C)[C@H]1CC[C@H]2[C@@H]3CC=C4C[C@@H](OC(=O)NCCN5CCOCC5)CC[C@]4(C)[C@H]3CC[C@]12C [lipid 3, {N-2-ethylamino[(3′-β-cholesteryl)carbamoyl]}morpholine]
luciferase activity (transfection activity) [1]: low activity
